Values quoted from earlier work, collected in patent US5858398A, “Microparticular pharmaceutical compositions” (Isomed Inc., priority 1996, dated 1999).

Tested on: intestinal membranes

Question: Which “concentrations inducing histopathological damage to intestinal membranes” value does the source give for “sn-1-acyl-3-glycerophosphorylcholine [lyso-PC]” here?
Answer: 0.01-1 mM
